Laboratory results reported in ChEMBL document CHEMBL3102798, “Stapled Vasoactive Intestinal Peptide (VIP) Derivatives Improve VPAC2 Agonism and Glucose-Dependent Insulin Secretion” (ACS Med Chem Lett, 2013).
Numbered stars: 1 amine (or outer) side, 2 acyl side, 3 side chain; on linkers, the order of the positions; unused ones are H or OH. Bridge positions count the residues as written; N and C are the ends. Square brackets hold non-standard residues; d marks the D form. Peptide text beside a SMILES is read from it. X1 = C[C@@](CCCCC=[*:3])(N[*:1])C(=O)[*:2]; S5 = C=CCCC[C@](C)(N)C(=O)O

Legend:
[1] = target: T1, Vasoactive intestinal polypeptide receptor 2 (Homo sapiens, UniProt P41587); experiment: Agonist activity at human VPAC2 expressed in CHO Flp-in cells assessed as accumulation of cAMP after 30 mins by TR-FRET assay; type: functional, cell-based
T1 sequence (P41587 whole entry): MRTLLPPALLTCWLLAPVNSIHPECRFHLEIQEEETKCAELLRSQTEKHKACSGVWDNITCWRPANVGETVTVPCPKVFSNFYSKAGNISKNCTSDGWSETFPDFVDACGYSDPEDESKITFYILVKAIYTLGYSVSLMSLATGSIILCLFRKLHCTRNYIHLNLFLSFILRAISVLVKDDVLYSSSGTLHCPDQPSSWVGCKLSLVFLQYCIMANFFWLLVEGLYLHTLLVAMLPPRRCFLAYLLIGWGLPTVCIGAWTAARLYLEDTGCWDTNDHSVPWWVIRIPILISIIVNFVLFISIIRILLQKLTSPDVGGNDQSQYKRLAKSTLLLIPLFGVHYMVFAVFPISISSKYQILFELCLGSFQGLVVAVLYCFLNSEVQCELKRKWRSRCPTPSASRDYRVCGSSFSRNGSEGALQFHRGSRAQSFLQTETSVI

[2] = Apparent passive permeability across apical to basolateral side in human Caco2 cells at 10 uM after 30 to 60 mins by LC/MS analysis; type: ADME, cell-based; conditions: Caco-2
[3] = Stability of the compound in phosphate buffer assessed as compound remaining at pH 7.4 after 15 mins by LC-MS-MS analysis in presence of trypsin; type: ADME; conditions: phosphate buffer with trypsin, read-out: Stability

Compound | EC50 [1] [nM] | Papp A→B at 10 µM [2] [×10⁻⁶ cm/s] | remaining at 0.25 h [3] [%]
C=CCCC[C@](C)(NC(=O)[C@H](CCC(N)=O)NC(=O)[C@H](CCCCN)NC(=O)[C@H](CCCN=C(N)N)NC(=O)[C@](C)(CCCC=C)NC(=O)[C@H](CCCN=C(N)N)NC(=O)[C@@H](NC(=O)[C@H](Cc1ccc(O)cc1)NC(=O)[C@H](CC(N)=O)NC(=O)[C@H](CC(=O)O)NC(=O)[C@@H](NC(=O)[C@H](Cc1ccccc1)NC(=O)[C@@H](NC(=O)[C@H](C)NC(=O)[C@H](CC(=O)O)NC(=O)[C@H](CO)NC(=O)[C@@H](N)Cc1cnc[nH]1)C(C)C)[C@@H](C)O)[C@@H](C)O)C(=O)N[C@@H](C)C(=O)N[C@H](C(=O)N[C@@H](CCCCN)C(=O)N[C@@H](CCCCN)C(=O)N[C@@H](Cc1ccc(O)cc1)C(=O)N[C@@H](CC(C)C)C(=O)N[C@@H](CC(N)=O)C(=O)N[C@@H](CO)C(=O)N[C@H](C(=O)N[C@@H](CC(C)C)C(=O)N[C@@H](CC(N)=O)C(=O)NCC(=O)N[C@@H](CCCCN)C(=O)O)[C@@H](C)CC)C(C)C | 1.37 | < 0.1 | 0.7
CC[C@H](C)[C@H](NC(=O)[C@H](CCC(N)=O)NC(=O)[C@H](CCCCN)NC(=O)[C@H](CCCNC(=N)N)NC(=O)[C@H](CC(C)C)NC(=O)[C@H](CCCNC(=N)N)NC(=O)[C@@H](NC(=O)[C@H](Cc1ccc(O)cc1)NC(=O)[C@H](CC(N)=O)NC(=O)[C@H](CC(=O)O)NC(=O)[C@@H](NC(=O)[C@H](Cc1ccccc1)NC(=O)[C@@H](NC(=O)[C@H](C)NC(=O)[C@H](CC(=O)O)NC(=O)[C@H](CO)NC(=O)[C@@H](N)Cc1cnc[nH]1)C(C)C)[C@@H](C)O)[C@@H](C)O)C(=O)N[C@@H](C)C(=O)N[C@H](C(=O)N[C@@H](CCCCN)C(=O)N[C@@H](CCCCN)C(=O)N[C@@H](Cc1ccc(O)cc1)C(=O)N[C@@H](CC(C)C)C(=O)N[C@@]1(C)CCCC/C=C\CCCC[C@@](C)(C(=O)NCC(=O)N[C@@H](CCCCN)C(=O)O)NC(=O)[C@H](CC(C)C)NC(=O)[C@H]([C@@H](C)CC)NC(=O)[C@H](CO)NC1=O)C(C)C (H-HSDAVFTDNYTRLRKQIAVKKYL[X1]SIL[X1]GK-OH; staple (Z) 24-28) | 0.39 |  | 
H-HSDAVFTDNYTRLRKQIAVKEYLNKILNGK-OH | 0.21 |  | 
CC[C@H](C)[C@H](NC(=O)[C@H](CCC(N)=O)NC(=O)[C@H](CCCCN)NC(=O)[C@H](CCCNC(=N)N)NC(=O)[C@H](CC(C)C)NC(=O)[C@H](CCCNC(=N)N)NC(=O)[C@@H](NC(=O)[C@H](Cc1ccc(O)cc1)NC(=O)[C@H](CC(N)=O)NC(=O)[C@H](CC(=O)O)NC(=O)[C@@H](NC(=O)[C@H](Cc1ccccc1)NC(=O)[C@@H](NC(=O)[C@H](C)NC(=O)[C@H](CC(=O)O)NC(=O)[C@H](CO)NC(=O)[C@@H](N)Cc1cnc[nH]1)C(C)C)[C@@H](C)O)[C@@H](C)O)C(=O)N[C@@H](C)C(=O)N[C@H](C(=O)N[C@@H](CCCCN)C(=O)N[C@@]1(C)CCCC/C=C\CCCC[C@@](C)(C(=O)N[C@H](C(=O)N[C@@H](CC(C)C)C(=O)N[C@@H](CC(N)=O)C(=O)NCC(=O)N[C@@H](CCCCN)C(=O)O)[C@@H](C)CC)NC(=O)[C@H](CC(N)=O)NC(=O)[C@H](CC(C)C)NC(=O)[C@H](Cc2ccc(O)cc2)NC1=O)C(C)C (H-HSDAVFTDNYTRLRKQIAVK[X1]YLN[X1]ILNGK-OH; staple (Z) 21-25) | 1.52 |  | 
CC[C@H](C)[C@H](NC(=O)[C@H](CO)NC(=O)[C@H](CC(N)=O)NC(=O)[C@H](CC(C)C)NC(=O)[C@H](Cc1ccc(O)cc1)NC(=O)[C@H](CCCCN)NC(=O)[C@H](CCCCN)NC(=O)[C@@H](NC(=O)[C@H](C)NC(=O)[C@@H]1CCCCNC(=O)CC[C@H](NC(=O)[C@H](CCCN=C(N)N)NC(=O)[C@@H](NC(=O)[C@H](Cc2ccc(O)cc2)NC(=O)[C@H](CC(N)=O)NC(=O)[C@H](CC(=O)O)NC(=O)[C@@H](NC(=O)[C@H](Cc2ccccc2)NC(=O)[C@@H](NC(=O)[C@H](C)NC(=O)[C@H](CC(=O)O)NC(=O)[C@H](CO)NC(=O)[C@@H](N)Cc2cnc[nH]2)C(C)C)[C@@H](C)O)[C@@H](C)O)C(=O)N[C@@H](CCCN=C(N)N)C(=O)N[C@@H](CCCCN)C(=O)N[C@@H](CCC(N)=O)C(=O)N1)C(C)C)C(=O)N[C@@H](CC(C)C)C(=O)N[C@@H](CC(N)=O)C(=O)NCC(=O)N[C@@H](CCCCN)C(=O)O (H-HSDAVFTDNYTRERKQKAVKKYLNSILNGK-OH; lactam 13-17) | 1.16 |  | 
H-HSDAVFTDNYTRLRKQIAVKKYLNSILNGK-OH | 0.14 | < 0.1 | 0.3
CC[C@H](C)[C@H](NC(=O)[C@H](CO)NC(=O)[C@H](CC(N)=O)NC(=O)[C@H](CC(C)C)NC(=O)[C@H](Cc1ccc(O)cc1)NC(=O)[C@]1(C)CCCC/C=C\CCCC[C@](C)(NC(=O)[C@H](CCC(N)=O)NC(=O)[C@H](CCCCN)NC(=O)[C@H](CCCNC(=N)N)NC(=O)[C@H](CC(C)C)NC(=O)[C@H](CCCNC(=N)N)NC(=O)[C@@H](NC(=O)[C@H](Cc2ccc(O)cc2)NC(=O)[C@H](CC(N)=O)NC(=O)[C@H](CC(=O)O)NC(=O)[C@@H](NC(=O)[C@H](Cc2ccccc2)NC(=O)[C@@H](NC(=O)[C@H](C)NC(=O)[C@H](CC(=O)O)NC(=O)[C@H](CO)NC(=O)[C@@H](N)Cc2cnc[nH]2)C(C)C)[C@@H](C)O)[C@@H](C)O)C(=O)N[C@@H](C)C(=O)N[C@@H](C(C)C)C(=O)N[C@@H](CCCCN)C(=O)N1)C(=O)N[C@@H](CC(C)C)C(=O)N[C@@H](CC(N)=O)C(=O)NCC(=O)N[C@@H](CCCCN)C(=O)O (H-HSDAVFTDNYTRLRKQ[X1]AVK[X1]YLNSILNGK-OH; staple (Z) 17-21) | 0.33 |  | 

Results, then the compound that gave them:

EC50 [1] [nM] | Papp A→B at 10 µM [2] [×10⁻⁶ cm/s] | remaining at 0.25 h [3] [%] | Compound
0.11 |  |  | CC[C@H](C)[C@H](NC(=O)[C@H](CCC(N)=O)NC(=O)[C@H](CCCCN)NC(=O)[C@H](CCCNC(=N)N)NC(=O)[C@H](CC(C)C)NC(=O)[C@H](CCCNC(=N)N)NC(=O)[C@@H](NC(=O)[C@H](Cc1ccc(O)cc1)NC(=O)[C@H](CC(N)=O)NC(=O)[C@H](CC(=O)O)NC(=O)[C@@H](NC(=O)[C@H](Cc1ccccc1)NC(=O)[C@@H](NC(=O)[C@H](C)NC(=O)[C@H](CC(=O)O)NC(=O)[C@H](CO)NC(=O)[C@@H](N)Cc1cnc[nH]1)C(C)C)[C@@H](C)O)[C@@H](C)O)C(=O)N[C@@H](C)C(=O)N[C@H](C(=O)N[C@@H](CCCCN)C(=O)N[C@H]1CCC(=O)NCCCC[C@@H](C(=O)N[C@H](C(=O)N[C@@H](CC(C)C)C(=O)N[C@@H](CC(N)=O)C(=O)NCC(=O)N[C@@H](CCCCN)C(=O)O)[C@@H](C)CC)NC(=O)[C@H](CC(N)=O)NC(=O)[C@H](CC(C)C)NC(=O)[C@H](Cc2ccc(O)cc2)NC1=O)C(C)C (H-HSDAVFTDNYTRLRKQIAVKEYLNKILNGK-OH; lactam 21-25)
1.49 |  |  | C=CCCC[C@](C)(NC(=O)[C@H](CCC(N)=O)NC(=O)[C@H](CCCCN)NC(=O)[C@H](CCCN=C(N)N)NC(=O)[C@H](CC(C)C)NC(=O)[C@H](CCCN=C(N)N)NC(=O)[C@@H](NC(=O)[C@H](Cc1ccc(O)cc1)NC(=O)[C@H](CC(N)=O)NC(=O)[C@H](CC(=O)O)NC(=O)[C@@H](NC(=O)[C@H](Cc1ccccc1)NC(=O)[C@@H](NC(=O)[C@H](C)NC(=O)[C@H](CC(=O)O)NC(=O)[C@H](CO)NC(=O)[C@@H](N)Cc1cnc[nH]1)C(C)C)[C@@H](C)O)[C@@H](C)O)C(=O)N[C@@H](C)C(=O)N[C@H](C(=O)N[C@@H](CCCCN)C(=O)N[C@@](C)(CCCC=C)C(=O)N[C@@H](Cc1ccc(O)cc1)C(=O)N[C@@H](CC(C)C)C(=O)N[C@@H](CC(N)=O)C(=O)N[C@@H](CO)C(=O)N[C@H](C(=O)N[C@@H](CC(C)C)C(=O)N[C@@H](CC(N)=O)C(=O)NCC(=O)N[C@@H](CCCCN)C(=O)O)[C@@H](C)CC)C(C)C (H-HSDAVFTDNYTRLRKQ[S5]AVK[S5]YLNSILNGK-OH)
0.21 |  |  | C=CCCC[C@](C)(NC(=O)[C@H](CC(C)C)NC(=O)[C@@H](NC(=O)[C@H](CO)NC(=O)[C@](C)(CCCC=C)NC(=O)[C@H](CC(C)C)NC(=O)[C@H](Cc1ccc(O)cc1)NC(=O)[C@H](CCCCN)NC(=O)[C@H](CCCCN)NC(=O)[C@@H](NC(=O)[C@H](C)NC(=O)[C@@H](NC(=O)[C@H](CCC(N)=O)NC(=O)[C@H](CCCCN)NC(=O)[C@H](CCCNC(=N)N)NC(=O)[C@H](CC(C)C)NC(=O)[C@H](CCCNC(=N)N)NC(=O)[C@@H](NC(=O)[C@H](Cc1ccc(O)cc1)NC(=O)[C@H](CC(N)=O)NC(=O)[C@H](CC(=O)O)NC(=O)[C@@H](NC(=O)[C@H](Cc1ccccc1)NC(=O)[C@@H](NC(=O)[C@H](C)NC(=O)[C@H](CC(=O)O)NC(=O)[C@H](CO)NC(=O)[C@@H](N)Cc1cnc[nH]1)C(C)C)[C@@H](C)O)[C@@H](C)O)[C@@H](C)CC)C(C)C)[C@@H](C)CC)C(=O)NCC(=O)N[C@@H](CCCCN)C(=O)O (H-HSDAVFTDNYTRLRKQIAVKKYL[S5]SIL[S5]GK-OH)
6.6 |  |  | H-HSDAVFTDNYTRERKQKAVKKYLNSILNGK-OH
3.8 |  |  | C=CCCC[C@](C)(NC(=O)[C@H](CCCCN)NC(=O)[C@@H](NC(=O)[C@H](C)NC(=O)[C@@H](NC(=O)[C@H](CCC(N)=O)NC(=O)[C@H](CCCCN)NC(=O)[C@H](CCCN=C(N)N)NC(=O)[C@H](CC(C)C)NC(=O)[C@H](CCCN=C(N)N)NC(=O)[C@@H](NC(=O)[C@H](Cc1ccc(O)cc1)NC(=O)[C@H](CC(N)=O)NC(=O)[C@H](CC(=O)O)NC(=O)[C@@H](NC(=O)[C@H](Cc1ccccc1)NC(=O)[C@@H](NC(=O)[C@H](C)NC(=O)[C@H](CC(=O)O)NC(=O)[C@H](CO)NC(=O)[C@@H](N)Cc1cnc[nH]1)C(C)C)[C@@H](C)O)[C@@H](C)O)[C@@H](C)CC)C(C)C)C(=O)N[C@@H](Cc1ccc(O)cc1)C(=O)N[C@@H](CC(C)C)C(=O)N[C@@H](CC(N)=O)C(=O)N[C@@](C)(CCCC=C)C(=O)N[C@H](C(=O)N[C@@H](CC(C)C)C(=O)N[C@@H](CC(N)=O)C(=O)NCC(=O)N[C@@H](CCCCN)C(=O)O)[C@@H](C)CC (H-HSDAVFTDNYTRLRKQIAVK[S5]YLN[S5]ILNGK-OH)
